From patent US8012970B2, “Derivatives of 1-{[1,5-bis(4-chlorophenyl)-2-methyl-1H-pyrrol-3-yl]methyl}-4-methylpiperazine, synthesis process and uses thereof” (priority 2005, dated 2011)
Converted amounts (≈) assume the structure as drawn. Where two headings read alike, the source gives them in different places.

What was measured:
Type in all cases: cell-based
[1] = test system: M. smegmatis 103599; experiment: Antimycobacterial activity toward atypical mycobacteria, MIC in broth
[2] = test system: M. marinum 6423; experiment: as above
[3] = test system: M. avium 103317; experiment: as above
[4] = test system: M. tuberculosis 103471; experiment: Antimycobacterial activity, MIC in Middlebrook 7H9 broth (NCCLS procedure); conditions: for MIC: Mycobacterium tuberculosis, 103471, read-out: M. tuberculosis 103471 MIC (μg/mL); for M. tuberculosis 103471 MIC: extracellular M. tuberculosis 103471
[5] = test system: VERO cells; experiment: Cytotoxicity on Vero cell monolayers (MNTD50); conditions: maximum 50% non-toxic dose, 5 days
Description: The cytotoxicity was evaluated on Vero cell monolayers (ICN-Flow). They were inoculated in 6-well plates each containing 9×10^4 cells and incubated in DMEM with 5% FCS for 24 h at 37° C. in a 5% CO2 incubator. After 24 h of culture, the medium was changed and a new medium containing decreasing doses of the substances under study was added.
After 5 days, the cells were trypsinized and counted in a Neubauer chamber under a light microscope. All the tests were done in triplicate. The maximum 50% non-toxic dose (MNTD50) was defined as the drug concentration that decreased cell multiplication less than 50% with respect to the control.

[6] = Mycolicibacterium smegmatis, 103599; read-out: MIC (μg/mL) M. smegmatis 103599
[7] = Mycobacterium marinum, 6423; read-out: MIC (μg/mL) M. marinum 6423
[8] = Mycobacterium avium, 103317; read-out: MIC (μg/mL) M. avium 103317

| Compound | MIC [1, 6] [µg/mL] | MIC [2, 7] [µg/mL] | MIC [3, 8] [µg/mL] | MIC [4] [µg/mL] | MNTD50 (μg/mL) VERO cells [5] [µg/mL] | MIC (μg/mL) M. smegmatis 103599 [1] [µg/mL] | MIC (μg/mL) M. marinum 6423 [2] [µg/mL] | MIC (μg/mL) M. avium 103317 [3] [µg/mL] | M. tuberculosis 103471 MIC [4] [µg/mL] | MIC ([1]; Mycolicibacterium smegmatis, 103599, read-out: MIC (μg/mL) M. smegmatis 103599) [µg/mL] | MIC ([2]; Mycobacterium marinum, 6423, read-out: MIC (μg/mL) M. marinum 6423) [µg/mL] | MIC ([3]; Mycobacterium avium, 103317, read-out: MIC (μg/mL) M. avium 103317) [µg/mL] |
| --- | --- | --- | --- | --- | --- | --- | --- | --- | --- | --- | --- | --- |
| Cc1c(CN2CCN(C)CC2)cc(-c2ccc(Cl)cc2)n1-c1ccc(Cl)cc1 [BM212, 1-{[1,5-bis(4-chlorophenyl)-2-methyl-1H-pyrrol-3-yl]methyl}-4-methylpiperazine] | 25 (≈ 60.3 µM) | 100 (≈ 241 µM) | 0.4 (≈ 0.965 µM) | 0.7 (≈ 1.69 µM) | 4 |  |  |  |  |  |  |  |
| Cc1c(CN2CCSCC2)cc(-c2ccccc2Cl)n1-c1ccc(F)cc1 [Compound 6a] |  |  |  |  | 4 | >16 | >16 | 16 (≈ 39.9 µM) | 4 |  |  |  |
| Cc1c(CN2CCN(C)CC2)cc(-c2ccccc2Cl)n1-c1ccc(F)cc1 [Compound 6b] |  |  |  |  | 2 | >16 | >16 | 16 (≈ 40.2 µM) | 8 |  |  |  |
| Cc1c(CN2CCSCC2)cc(-c2ccccc2F)n1-c1ccc(F)cc1 [Compound 6c] |  |  |  |  | 16 | >16 | >16 | 16 (≈ 41.6 µM) | 0.5 |  |  |  |
| Cc1c(CN2CCN(C)CC2)cc(-c2ccccc2F)n1-c1ccc(F)cc1 [Compound 6d] |  |  |  |  | 4 | >16 | >16 | >16 | 16 |  |  |  |
| Cc1ccc(-c2cc(CN3CCN(C)CC3)c(C)n2-c2ccc(F)cc2)cc1 [Compound 6f] |  |  |  |  | 8 | 8 (≈ 21.2 µM) | >16 | 4 (≈ 10.6 µM) | 4 |  |  |  |
| Cc1c(CN2CCSCC2)cc(-c2ccc(Cl)cc2Cl)n1-c1ccc(F)cc1 [Compound 6g] |  |  |  |  | 64 | >16 | >16 | 4 (≈ 9.19 µM) | 2 |  |  |  |
| Cc1c(CN2CCN(C)CC2)cc(-c2ccc(Cl)cc2Cl)n1-c1ccc(F)cc1 [Compound 6h] |  |  |  |  | 16 | >16 | >16 | 2 (≈ 4.63 µM) | 8 |  |  |  |
| Cc1c(CN2CCSCC2)cc(-c2ccc(F)cc2F)n1-c1ccc(F)cc1 [Compound 6i] |  |  |  |  | 16 | >16 | 16 (≈ 39.8 µM) | 16 (≈ 39.8 µM) | 0.5 |  |  |  |
| Cc1c(CN2CCN(C)CC2)cc(-c2ccc(F)cc2F)n1-c1ccc(F)cc1 [Compound 6j] |  |  |  |  | 8 | >16 | >16 | 16 (≈ 40.1 µM) | 4 |  |  |  |
| Cc1c(CN2CCSCC2)cc(-c2cccc3ccccc23)n1-c1ccc(F)cc1 [Compound 6k] |  |  |  |  | >128 | >16 | >16 | >16 | >16 |  |  |  |
| Cc1c(CN2CCN(C)CC2)cc(-c2cccc3ccccc23)n1-c1ccc(F)cc1 [Compound 6l] |  |  |  |  | 4 | >16 | 16 (≈ 38.7 µM) | 8 (≈ 19.3 µM) | 16 |  |  |  |
| Cc1c(CN2CCSCC2)cc(-c2ccc(F)cc2)n1-c1ccccc1Cl [Compound 7a] |  |  |  |  | 8 | >16 | >16 | >16 | 2 |  |  |  |
| Cc1c(CN2CCN(C)CC2)cc(-c2ccc(F)cc2)n1-c1ccccc1Cl [Compound 7b] |  |  |  |  | 8 | >16 | >16 | >16 | 4 |  |  |  |
| Cc1c(CN2CCN(C)CC2)cc(-c2ccc(F)cc2)n1-c1ccccc1F [Compound 7d] |  |  |  |  | 8 | 0.3 (≈ 0.786 µM) | >16 | 16 (≈ 41.9 µM) | 8 |  |  |  |
| Cc1ccc(-n2c(-c3ccc(F)cc3)cc(CN3CCSCC3)c2C)cc1 [Compound 7e] |  |  |  |  | 8 | 16 (≈ 42 µM) | 8 (≈ 21 µM) | 8 (≈ 21 µM) | 4 |  |  |  |
| Cc1ccc(-n2c(-c3ccc(F)cc3)cc(CN3CCN(C)CC3)c2C)cc1 [Compound 7f] |  |  |  |  | 8 | >16 | 8 (≈ 21.2 µM) | 16 (≈ 42.4 µM) | 16 |  |  |  |
| Cc1c(CN2CCSCC2)cc(-c2ccc(F)cc2)n1-c1ccc(Cl)cc1Cl [Compound 7g] |  |  |  |  | 4 | 16 (≈ 36.7 µM) | 8 (≈ 18.4 µM) | 2 (≈ 4.59 µM) | 1 |  |  |  |
| Cc1c(CN2CCN(C)CC2)cc(-c2ccc(F)cc2)n1-c1ccc(Cl)cc1Cl [Compound 7h] |  |  |  |  | 2 | >16 | 8 (≈ 18.5 µM) | 4 (≈ 9.25 µM) | 4 |  |  |  |
| Cc1c(CN2CCSCC2)cc(-c2ccc(F)cc2)n1-c1ccc(F)cc1F [Compound 7i] |  |  |  |  | 16 | >16 | 16 (≈ 39.8 µM) | 16 (≈ 39.8 µM) | 2 |  |  |  |
| Cc1c(CN2CCN(C)CC2)cc(-c2ccc(F)cc2)n1-c1ccc(F)cc1F [Compound 7j] |  |  |  |  | 16 | >16 | 16 (≈ 40.1 µM) | 16 (≈ 40.1 µM) | 16 |  |  |  |
| Cc1c(CN2CCSCC2)cc(-c2ccc(F)cc2)n1-c1cccc2ccccc12 [Compound 7k] |  |  |  |  | 2 | >16 | 16 (≈ 38.4 µM) | 8 (≈ 19.2 µM) | 4 |  |  |  |
| Cc1c(CN2CCN(C)CC2)cc(-c2ccc(F)cc2)n1-c1cccc2ccccc12 [Compound 7l] |  |  |  |  | 4 | >16 | 8 (≈ 19.3 µM) | 8 (≈ 19.3 µM) | 4 |  |  |  |
| NNC(=O)c1ccncc1 [Isoniazid, reference compound] |  |  |  | 0.25 (≈ 1.82 µM) | 32 |  |  |  |  | 64 (≈ 467 µM) | 16 (≈ 117 µM) | 32 (≈ 233 µM) |
| [H]/N=C(/N)N[C@H]1[C@H](O)[C@@H](O)[C@H](O[C@@H]2O[C@@H](C)[C@](O)(C=O)[C@H]2O[C@@H]2O[C@@H](CO)[C@H](O)[C@@H](O)[C@@H]2NC)[C@@H](N/C(N)=N\[H])[C@@H]1O [Streptomycin, reference compound] | 8 (≈ 13.8 µM) | 32 (≈ 55 µM) | 8 (≈ 13.8 µM) | 0.5 (≈ 0.86 µM) | >64 |  |  |  |  |  |  |  |
